{
  "source": "paper PMC2804269",
  "about": "(Bioconjugate chemistry, 2009)",
  "key": {"[1]": {"assay": "Biodistribution in nude mice bearing U87MG xenografts", "assay_type": "in vivo, mouse", "settings": "nude, mouse, iv, 740 KBq (20 uCi), total radioactivity, 0.5 h p.i., n = 3"}, "U87MG tumor bearing mice [2]": {"test_system": "U87MG tumor bearing mice", "assay": "Biodistribution in nude mice bearing U87MG xenografts", "assay_type": "in vivo, mouse", "settings": "330 μg c(RGDyK), 0.5 h p.i., P < 0.05"}, "U87MG tumor bearing mice [3]": {"test_system": "U87MG tumor bearing mice", "assay": "Dynamic microPET scan of U87MG tumor-bearing mouse", "assay_type": "in vivo", "settings": "35 min p.i., ROI analysis of the heart"}, "U87MG tumor bearing mice [4]": {"test_system": "U87MG tumor bearing mice", "assay": "Static microPET imaging quantification", "assay_type": "in vivo, mouse", "settings": "quantification of microPET images"}, "[5]": {"target": "integrin αvβ3 (Homo sapiens) (UniProt P06756)", "sequence (P06756 31-1048, chain 1 of 2)": "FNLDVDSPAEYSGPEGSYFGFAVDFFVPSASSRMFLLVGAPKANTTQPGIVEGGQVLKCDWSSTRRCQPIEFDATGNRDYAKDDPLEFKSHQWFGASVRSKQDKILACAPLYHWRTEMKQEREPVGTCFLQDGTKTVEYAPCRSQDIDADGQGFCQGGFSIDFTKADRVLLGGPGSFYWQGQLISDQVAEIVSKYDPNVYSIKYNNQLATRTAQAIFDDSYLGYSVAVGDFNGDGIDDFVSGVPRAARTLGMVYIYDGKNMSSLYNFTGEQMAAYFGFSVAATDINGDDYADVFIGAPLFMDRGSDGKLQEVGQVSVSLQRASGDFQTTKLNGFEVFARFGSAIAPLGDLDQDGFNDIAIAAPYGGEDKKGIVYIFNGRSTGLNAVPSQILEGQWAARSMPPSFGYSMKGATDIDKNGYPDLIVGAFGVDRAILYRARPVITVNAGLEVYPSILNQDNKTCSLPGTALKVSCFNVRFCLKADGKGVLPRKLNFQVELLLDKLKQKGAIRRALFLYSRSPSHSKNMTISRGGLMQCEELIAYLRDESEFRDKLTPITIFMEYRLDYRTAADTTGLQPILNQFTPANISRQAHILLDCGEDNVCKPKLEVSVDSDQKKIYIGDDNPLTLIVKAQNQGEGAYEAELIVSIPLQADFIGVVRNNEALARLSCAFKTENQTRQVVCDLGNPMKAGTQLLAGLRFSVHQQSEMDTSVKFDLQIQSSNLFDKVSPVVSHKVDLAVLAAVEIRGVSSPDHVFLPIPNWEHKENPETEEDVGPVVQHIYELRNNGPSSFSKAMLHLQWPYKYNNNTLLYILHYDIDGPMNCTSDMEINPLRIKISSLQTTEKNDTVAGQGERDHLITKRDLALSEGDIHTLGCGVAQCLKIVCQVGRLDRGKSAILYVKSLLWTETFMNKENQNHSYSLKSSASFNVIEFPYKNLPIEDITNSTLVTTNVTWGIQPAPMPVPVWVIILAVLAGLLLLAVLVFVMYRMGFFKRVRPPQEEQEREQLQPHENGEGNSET", "sequence (P05106 27-788, chain 2 of 2, further chain)": "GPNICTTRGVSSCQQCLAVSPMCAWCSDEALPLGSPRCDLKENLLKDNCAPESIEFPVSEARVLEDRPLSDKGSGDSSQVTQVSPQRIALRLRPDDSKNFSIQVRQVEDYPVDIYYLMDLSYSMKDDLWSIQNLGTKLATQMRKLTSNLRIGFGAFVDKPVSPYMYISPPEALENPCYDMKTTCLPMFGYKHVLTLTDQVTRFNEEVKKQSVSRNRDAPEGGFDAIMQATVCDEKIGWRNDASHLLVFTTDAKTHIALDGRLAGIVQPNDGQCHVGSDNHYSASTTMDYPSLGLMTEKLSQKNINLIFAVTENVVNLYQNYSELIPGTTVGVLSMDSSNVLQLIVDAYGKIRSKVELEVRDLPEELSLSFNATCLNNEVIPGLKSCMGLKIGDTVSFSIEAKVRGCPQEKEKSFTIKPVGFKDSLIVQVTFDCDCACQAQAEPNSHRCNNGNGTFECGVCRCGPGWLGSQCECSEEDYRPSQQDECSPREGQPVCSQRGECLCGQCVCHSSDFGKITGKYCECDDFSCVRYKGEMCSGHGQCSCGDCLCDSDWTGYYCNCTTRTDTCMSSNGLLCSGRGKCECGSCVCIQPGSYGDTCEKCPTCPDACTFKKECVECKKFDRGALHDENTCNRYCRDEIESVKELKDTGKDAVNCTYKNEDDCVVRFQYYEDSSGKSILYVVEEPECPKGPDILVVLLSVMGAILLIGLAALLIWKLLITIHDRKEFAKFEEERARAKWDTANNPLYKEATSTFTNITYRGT", "settings": "cited from earlier work"}, "αvβ3 integrin": {"target": "αvβ3 integrin", "settings": "binding to αvβ3 integrin; cited from earlier work"}},
  "note": "Bridge positions count the residues as written; N and C are the ends. Peptide text beside a SMILES is read from it. * marks the point of attachment. Benzoyl(4-F) = O=C(c1ccc(F)cc1)*",
  "data": [
    {"compound": "CC(C)C[C@@H]1NC(=O)[C@@H]2CSSC[C@@H](C(=O)NCC(N)=O)NC(=O)[C@H](Cc3ccccc3)NC(=O)CNC(=O)[C@H](CC(N)=O)NC(=O)[C@@H]3CCCN3C(=O)CNC(=O)[C@@H]3CSSC[C@H](NC(=O)[C@H](CO)NC(=O)[C@H]([C@@H](C)O)NC(=O)[C@@H]4CCCN4C(=O)[C@H](C)NC(=O)[C@H](Cc4c[nH]c5ccccc45)NC(=O)[C@H](CC(=O)O)NC(=O)CNC(=O)[C@H](CCCNC(=N)N)NC(=O)CNC(=O)[C@H](CCC(N)=O)NC(=O)[C@@H]4CCCN4C(=O)[C@@H](NC(=O)CNC(=O)c4ccc(F)cc4)CSSC[C@H](NC(=O)CNC(=O)[C@H](C)NC1=O)C(=O)N[C@@H](C(C)C)C(=O)N3)C(=O)N[C@@H](CO)C(=O)N[C@@H](CCC(N)=O)C(=O)N[C@@H](CC(=O)O)C(=O)N[C@@H](CO)C(=O)N[C@@H](CC(=O)O)C(=O)N2", "note": "[^18F-FB-2.5D] ({Benzoyl(4-F)}-GCPQGRGDWAPTSCSQDSDCLAGCVCGPNGFCG-NH2; disulfide 2-24, 14-26, 20-32; C-terminus assumed)", "values": [
      {"measurement": "tissue uptake at 0.5 h", "setting": "[1]; blood, blood radioactivity (biodistribution)", "value": "1.32 ± 0.07", "unit": "%ID/g"},
      {"measurement": "tissue uptake at 0.5 h", "setting": "[1]; kidney, kidney uptake (biodistribution)", "value": "4.24 ± 0.19", "unit": "%ID/g"},
      {"measurement": "tissue uptake at 0.5 h", "setting": "[1]; liver, liver uptake (biodistribution)", "value": "1.38 ± 0.55", "unit": "%ID/g"},
      {"measurement": "inhibition of tumor uptake by co-injection of c(RGDyK)", "setting": "U87MG tumor bearing mice [2]", "value": 70, "unit": "%"},
      {"measurement": "radioactivity in blood relative to amount at 3 min p.i.", "setting": "U87MG tumor bearing mice [3]", "value": "approximately 9.2%"},
      {"measurement": "activity remaining in tumor at 1 h p.i. compared to 0.5 h", "setting": "U87MG tumor bearing mice [4]", "value": 56, "unit": "%"}
    ]},
    {"compound": "Echistatin (from UniProt P17347)", "values": [
      {"measurement": "Kd", "setting": "[5]", "value": 0.3, "unit": "nM"}
    ]},
    {"compound": "echistatin", "values": [
      {"measurement": "Kd", "setting": "αvβ3 integrin", "value": "~0.3", "unit": "nM"}
    ]}
  ]
}
